The text below walks through data of publication PMC12863215, “The vacuolar transporters MaMATE11 and MaMATE14 affect blue flower coloration in grape hyacinth (Muscari)” (Horticulture Research, 2025).

One experiment concerns T1, MaMATE14.
T1 construct: full-length cDNA in pYES2, expressed in Saccharomyces cerevisiae BY4741; microsomal vesicles; 510 residues; 12 predicted transmembrane segments
Description: uptake into yeast microsomal vesicles, HPLC, Lineweaver-Burk. To be noted: transport; 5 mM MgATP, 25 mM Tris-MES pH 8.0, 50 mM KCl, 25 °C, 20 min; minus-ATP subtracted. The format is biochemical, Muscari aucheri.

The test system of another experiment is T2, MaMATE11.
T2 construct: full-length cDNA in pYES2, expressed in Saccharomyces cerevisiae BY4741; microsomal vesicles; 441 residues; 10 predicted transmembrane segments
The description is as above. The format is biochemical, Muscari aucheri. The conditions noted are these: transport; 5 mM MgATP, 25 mM Tris-MES pH 8.0, 50 mM KCl, 25 °C, 20 min; minus-ATP subtracted.

For `Oc1ccc([C@H]2Oc3cc(O)cc(O)c3C[C@H]2O)cc1` [(−)-epiafzelechin], the figures for the Km in the experiment with MaMATE14 and in the experiment with MaMATE11 were 43.8 µM and 57.4 µM, respectively.
For `OC[C@H]1O[C@@H](Oc2cc3c(O[C@@H]4O[C@H](CO)[C@@H](O)[C@H](O)[C@H]4O)cc(O)cc3[o+]c2-c2ccc(O)c(O)c2)[C@H](O)[C@@H](O)[C@@H]1O` [cyanidin-3,5-di-O-glucoside], in that order: 45.3 µM and 27 µM.
The matching figures for `OC[C@H]1O[C@@H](Oc2cc3c(O)cc(O)cc3[o+]c2-c2ccc(O)c(O)c2)[C@H](O)[C@@H](O)[C@@H]1O` [cyanidin-3-O-glucoside]: 61.4 µM and 57.5 µM.
The matching figures for `O=c1c(O)c(-c2ccc(O)cc2)oc2cc(O[C@@H]3O[C@H](CO)[C@@H](O)[C@H](O)[C@H]3O)cc(O)c12` [kaempferol 7-O-glucoside]: 57.4 µM and 60.2 µM.

The term Km denotes the concentration of substrate that gives half-maximal velocity.
